Reference: patent publication US11278563B2, “Rapid release pharmaceutical formulations containing algal cellulose” (priority 2016, dated 2022)
One block for each compound: values may come before it.

Experiments:
[1] = DSC melting enthalpy and degree of crystallinity of FFA in cellulose mixtures; format: physicochemical; details: degree of crystallinity of FFA from DSC melting enthalpy, about 10 wt % FFA, n = 3
Experimental: Thermal analysis was performed with TA instrument (Model Q-2000) on both cellulose-drug mixtures and pure substances. Samples were placed inside hermetically sealed aluminium crucibles with punctured lids, in order to avoid overpressure caused by water evaporation. An empty pan was used as a reference. The analysis was conducted in the temperature range from −40° C. to 150° C. with a heating rate of 10° C. min^−1. N2 gas, at a flow of 50 mL min^−1, was applied during analysis. Initially the samples were cooled from room temperature to −40° C., then heated to 150° C. and finally cooled to 25° C. again. All of the samples were stored at ambient conditions for 24 hours prior to DSC measurements. For the heated cellulose-FFA mixtures the heating conditions were 120° C. for 2 hours.
The measurements were performed in triplicate, and the estimated amount of drug in the mixtures was 10 wt %.

[2] = Degree of drug crystallinity from weight normalized melting enthalpies (TGA heat flow); format: physicochemical
Experimental: TGA was conducted on a Mettler TG50 apparatus (10 K min^−1; 35° C. to 20° C. above the melting point of the drug) on 10-20 mg samples in aluminium crucibles under a nitrogen atmosphere (60 mL min^−1). Both normal and heated 10% mixtures were analysed and compared to the pure crystalline substance of corresponding drug content, i.e. 1-2 mg. The temperature in the furnace was continuously monitored, and the heat flow curves were collected both for heating and cooling phase to record melting or re-crystallization events.
The weight normalized enthalpies of melting observed in cellulose-drug mixtures were calculated using the STARe Excellence software (Mettler Toledo) and compared to the weight normalized enthalpy for the pure crystalline drug, to give a rough estimate of the degree of the drug crystallinity (“Crl”) as follows.
[formula] where ΔHmelt is weight normalised melting enthalpy of the drug in a specific cellulose-drug blend [in Joules/g] and ΔHdrug is the melting enthalpy of a pure crystalline drug [in Joules/g]. X-Ray Diffraction (XRD)

- CrlFFA.% [1]: 100%
SMILES: O=C(O)c1ccccc1Nc1cccc(C(F)(F)F)c1 [FFA, flufenamic acid]

- CrlNAP (%) ([2]; melting event): 100%
- CrlNAP (%) ([2]; recrystallisation event of pure NAP (NAP recryst.)): 76%
SMILES: COc1ccc2cc([C@H](C)C(=O)O)ccc2c1 [NAP, naproxen]

- CrlPRO (%) ([2]; melting event): 100%
SMILES: CC(=O)[C@H]1CC[C@H]2[C@@H]3CCC4=CC(=O)CC[C@]4(C)[C@H]3CC[C@]12C [PRO, progesterone]
